Measurements as given in PubChem BioAssay (NCI).
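Test compounds were applied to cells in 96-well plates for 48 hours at 5 doses. TGI marks complete inhibition of growth.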 Where a SMILES comes first, the peptide text is derived from it. [ ]: non-standard residue; d: D form. The star is where a group is joined. Phe(4-NO2) = N[CH](Cc1ccc([N+](=O)[O-])cc1)C(=O)O; Cbz = O=C(OCc1ccccc1)*

Key:
Assay in all cases: NCI anticancer screen, dose series, 48 h
SF-295 CNS = system: SF-295 CNS
SK-MEL-28 melanoma = system: SK-MEL-28 melanoma
A549 NSCLC = system: A549 NSCLC
SNB-19 CNS = system: SNB-19 CNS
PC-3 prostate = system: PC-3 prostate
HCT-15 colon = system: HCT-15 colon
HOP-62 NSCLC = system: HOP-62 NSCLC
NCI/ADR-RES ovarian = system: NCI/ADR-RES ovarian
HCT-116 colon = system: HCT-116 colon
M14 melanoma = system: M14 melanoma
A498 renal = system: A498 renal
RXF 393 renal = system: RXF 393 renal

Row | Structure (SMILES) | TGI (SF-295 CNS) | TGI (SK-MEL-28 melanoma) | TGI (A549 NSCLC) | TGI (SNB-19 CNS) | TGI (PC-3 prostate) | TGI (HCT-15 colon) | TGI (HOP-62 NSCLC) | TGI (NCI/ADR-RES ovarian) | TGI (HCT-116 colon) | TGI (M14 melanoma) | TGI (A498 renal) | TGI (RXF 393 renal)
1 | CC1(C)COC(c2cccc(C(=O)c3ccccc3)c2)=N1 | > 100 µM | > 100 µM | > 100 µM | > 100 µM | > 100 µM | > 100 µM | > 100 µM | > 100 µM | > 100 µM |  |  | 
2 | CCOC(=O)/C(=C\n1c(=O)sc2ccccc21)C(=O)c1ccccc1 | > 100 µM | > 100 µM | > 100 µM |  | > 100 µM | > 100 µM | > 100 µM | > 100 µM | > 100 µM | > 100 µM | > 100 µM | > 100 µM
3 | O=C(O)CNc1ncc2c(n1)-c1ccccc1OC2 | > 100 µM | > 100 µM | > 100 µM | > 100 µM | > 100 µM | > 100 µM | > 100 µM | > 100 µM | > 100 µM | > 100 µM |  | > 100 µM
4 | N#Cc1ccccc1NC(=O)C(O)C(O)C(O)C(O)C=O (configuration not stated) | > 100 µM | > 100 µM | > 100 µM | > 100 µM | > 100 µM | > 100 µM |  | > 100 µM | > 100 µM | > 100 µM | > 100 µM | > 100 µM
5 | C[C@]12CC/C(=N\OCCN3CCCC3)C=C1CCC1C2CC[C@@]2(C)C1CC[C@]2(C)O (some centres not stated) | 12.3 µM |  | 42.5 µM | 49 µM | 71.7 µM | 15 µM | 50 µM | 15.4 µM | 18 µM | 37.1 µM | 4.7 µM | 75.5 µM
6 | CCc1n[nH]c(=O)n1N | > 100 µM | > 100 µM | > 100 µM | > 100 µM | > 100 µM | > 100 µM | > 100 µM | > 100 µM | > 100 µM | > 100 µM | > 100 µM | 
7 | CCOC(=O)C1Cc2ccc(C)cc2C1=O (configuration not stated) | > 100 µM | > 100 µM | > 100 µM |  | > 100 µM | > 100 µM | > 100 µM | > 100 µM | > 100 µM | > 100 µM |  | 
8 | N=c1oc2ccccc2cc1C(=O)Nc1ccccn1 |  | > 100 µM | > 100 µM | > 100 µM |  | > 100 µM | > 100 µM | > 100 µM | > 100 µM | > 100 µM | > 100 µM | > 100 µM
9 | COC(=O)/C=C1/OC(c2ccccc2)=C(Br)C1=O |  | > 100 µM |  | > 100 µM | > 100 µM | > 100 µM | > 100 µM |  | > 100 µM | > 100 µM | > 100 µM | > 100 µM
10 | CC1=NN(c2ccccc2Cl)C2(C1)C(Cl)C(=O)N2c1nc2ccccc2s1 (configuration not stated) | > 100 µM |  | > 100 µM | > 100 µM | > 100 µM | > 100 µM | > 100 µM | > 100 µM | > 100 µM | > 100 µM | > 100 µM | > 100 µM
11 | COc1cnc2oc3ccc(O)cc3c2c1-c1ccccc1 | > 100 µM | > 100 µM | > 100 µM |  | > 100 µM | > 100 µM | > 100 µM | > 100 µM | 45 µM | 39.8 µM | > 100 µM | > 100 µM
12 | COC(=O)c1c(C)c2c(c(C)c1O)OC(=O)c1c(C)cc(O)c(C=O)c1O2 | > 100 µM | > 100 µM | > 100 µM | > 100 µM | > 100 µM | > 100 µM | > 100 µM | > 100 µM | > 100 µM | > 100 µM |  | > 100 µM
13 | CC1(C)C2CCC1(C)C(NC(=O)COCCOCC(N)=O)C2 (configuration not stated) | > 100 µM | > 100 µM | > 100 µM | > 100 µM | > 100 µM |  | > 100 µM |  | > 100 µM | > 100 µM | > 100 µM | > 100 µM
14 | c1ccc(Nc2nnc(-c3ccccc3Nc3ccccc3-c3nnc(Nc4ccccc4)s3)s2)cc1 | > 100 µM | > 100 µM |  | > 100 µM | > 100 µM | > 100 µM | > 100 µM | > 100 µM | > 100 µM | > 100 µM |  | > 100 µM
15 | CC(=O)NC1=C(NCCO)C(=O)c2ccccc2C1=O | > 50 µM | > 50 µM | > 50 µM | > 50 µM |  | > 50 µM | > 50 µM |  | > 50 µM | > 50 µM |  | > 50 µM
16 | NNC(=O)c1cc(Cl)ccc1NC(=O)C12CC3CC(CC(C3)C1)C2 | > 100 µM | > 100 µM | 48.2 µM | 43.1 µM | > 100 µM | > 100 µM | > 100 µM | > 100 µM | 85.5 µM | 31.8 µM |  | > 100 µM
17 | Cc1cc(O)c(C(O)c2ccccn2)cc1O (configuration not stated) | > 100 µM | 33.5 µM | > 100 µM | > 100 µM | 29.1 µM | 34.1 µM | > 100 µM | 72.6 µM | 31.2 µM | 38.4 µM |  | 30.2 µM
18 | Nc1nc(N)c2ncn(Cc3ccccc3CO)c2n1 | > 100 µM | > 100 µM | > 100 µM | > 100 µM | > 100 µM | > 100 µM | > 100 µM | > 100 µM | > 100 µM | > 100 µM | > 100 µM | 
19 | CCOC(=O)CCC(NC(=O)OCc1ccccc1)C(=O)NC(CCC(=O)OCC)C(=O)NC(CCC(=O)OCC)C(=O)NC(CCC(=O)OCC)C(=O)NC(CCC(=O)OCC)C(=O)NC(Cc1ccc([N+](=O)[O-])cc1)C(=O)NC(CCC(=O)OCC)C(=O)NC(CCC(=O)OCC)C(=O)NC(CCC(=O)OCC)C(=O)NC(CCC(=O)OCC)C(=O)NC(CCC(=O)OCC)C(=O)OCC (configuration not stated) (Cbz-E(OEt)E(OEt)E(OEt)E(OEt)E(OEt)[Phe(4-NO2)]E(OEt)E(OEt)E(OEt)E(OEt)E(OEt)-OEt; configuration not given here) |  | > 50 µM | > 50 µM | > 50 µM | > 50 µM | > 50 µM | > 50 µM | > 50 µM |  | > 50 µM | > 50 µM | > 50 µM
20 | O=C(O)C(Cc1ccc(O)cc1)N=Cc1nc(-c2ccccc2)oc1O (configuration not stated) | > 100 µM | > 100 µM | > 100 µM | > 100 µM |  | > 100 µM | > 100 µM |  | > 100 µM | > 100 µM | > 100 µM | > 100 µM
